Results on 26 compounds are retold here after ChEMBL document CHEMBL1140148, “Structure-activity studies on a series of a 2-aminopyrimidine-containing histamine H4 receptor ligands” (J Med Chem, 2008).

Series [1] concerns the target Histamine H4 receptor (Rattus norvegicus) (UniProt Q91ZY1). The settings on record: HEK293.
Series [2] concerns the target T1, Histamine H4 receptor (Homo sapiens, UniProt Q9H3N8). The settings on record: HEK293.
The target in series [3] is T2, Histamine H4 receptor (Rattus norvegicus, UniProt Q91ZY1). Nature of the series: (§1) Agonist activity at rat histamine H4 receptor expressed in HEK293 cells coexpressing Gqi5 protein assessed as calcium flux by FLIPR assay. It counts as functional, cell-based. In general terms: Calcium assays in cells follow changes in intracellular calcium, usually with a dye or a luminescent sensor.

In series [4] the target is Histamine H4 receptor (Rattus norvegicus) (UniProt Q91ZY1). Put plainly: Agonist activity at rat histamine H4 receptor expressed in HEK293 cells coexpressing Gqi5 protein assessed as calcium flux by FLIPR assay relative to histamine. It counts as functional, cell-based.
The target of series [5] is T1, Histamine H4 receptor. Put plainly: Agonist activity at human histamine H4 receptor expressed in HEK293 cells coexpressing Gqi5 protein assessed as calcium flux by FLIPR assay relative to histamine. It counts as functional, cell-based.
Series [6] addresses T1, Histamine H4 receptor. Nature of the series: Agonist activity at human histamine H4 receptor expressed in HEK293 cells coexpressing Gqi5 protein assessed as calcium flux by FLIPR assay. It counts as functional, cell-based.
Series [7] has as its system Brain. Put plainly: Drug level in rat brain assessed as metabolism to 4-(2-amino-6-(piperazin-1-yl)pyrimidin-4-yl)benzonitrile at 30 umol/kg, ip. The conditions noted are these: in vivo. The format is ADME, organism-based.
Series [8] concerns the target Histamine H4 receptor (Mus musculus, UniProt Q91ZY2). Nature of the series: Agonist activity at mouse histamine H4 receptor expressed in HEK293 cells coexpressing Gqi5 protein assessed as calcium flux by FLIPR assay. The format is functional, cell-based.
Series [9] concerns the target T1, Histamine H4 receptor. Nature of the series: Displacement of [3H]histamine from human histamine H4 receptor expressed in HEK293 cells. It counts as cell-based. (Displacement assays read how much labelled ligand stays bound in the presence of the test substance.)
Series [10] addresses T2, Histamine H4 receptor. Nature of the series: Displacement of [3H]histamine from rat histamine H4 receptor expressed in HEK293 cells. The format is cell-based.
The target in series [11] is Histamine H3 receptor (Homo sapiens, UniProt Q9Y5N1). Put plainly: Binding affinity to human histamine H3 receptor.
The target in series [12] is Histamine H3 receptor (Rattus norvegicus, UniProt Q9QYN8). Put plainly: Binding affinity to rat histamine H3 receptor.
The target of series [13] is Histamine H4 receptor (Rattus norvegicus) (UniProt Q91ZY1). Described as §1. It counts as functional, cell-based.

Chain of Histamine H4 receptor (Rattus norvegicus) (Q91ZY1 whole entry): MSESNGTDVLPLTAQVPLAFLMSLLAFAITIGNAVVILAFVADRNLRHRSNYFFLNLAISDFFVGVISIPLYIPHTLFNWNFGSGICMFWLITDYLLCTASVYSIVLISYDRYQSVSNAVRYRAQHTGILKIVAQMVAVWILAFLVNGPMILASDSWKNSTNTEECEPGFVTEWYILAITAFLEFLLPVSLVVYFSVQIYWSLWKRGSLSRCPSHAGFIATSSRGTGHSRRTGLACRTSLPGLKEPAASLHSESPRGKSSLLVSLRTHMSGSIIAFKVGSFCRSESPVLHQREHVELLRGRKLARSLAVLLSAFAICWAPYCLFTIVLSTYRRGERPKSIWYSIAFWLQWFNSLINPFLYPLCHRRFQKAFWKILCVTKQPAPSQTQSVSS
T2 sequence (Q91ZY1 whole entry): as above
T1 sequence (Q9H3N8 whole entry): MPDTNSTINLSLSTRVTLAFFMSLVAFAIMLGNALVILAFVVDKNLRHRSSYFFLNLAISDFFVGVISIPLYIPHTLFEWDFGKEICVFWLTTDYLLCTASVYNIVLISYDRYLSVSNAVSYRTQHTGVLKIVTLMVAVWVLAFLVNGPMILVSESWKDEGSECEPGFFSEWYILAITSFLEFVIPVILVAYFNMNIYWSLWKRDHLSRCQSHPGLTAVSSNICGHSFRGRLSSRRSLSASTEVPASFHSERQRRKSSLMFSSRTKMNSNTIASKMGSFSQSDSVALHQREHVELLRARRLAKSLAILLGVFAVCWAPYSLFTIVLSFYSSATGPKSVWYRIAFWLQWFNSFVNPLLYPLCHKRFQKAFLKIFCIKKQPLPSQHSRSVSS
Chain of Histamine H3 receptor (Rattus norvegicus, UniProt Q9QYN8) (Q9QYN8 whole entry): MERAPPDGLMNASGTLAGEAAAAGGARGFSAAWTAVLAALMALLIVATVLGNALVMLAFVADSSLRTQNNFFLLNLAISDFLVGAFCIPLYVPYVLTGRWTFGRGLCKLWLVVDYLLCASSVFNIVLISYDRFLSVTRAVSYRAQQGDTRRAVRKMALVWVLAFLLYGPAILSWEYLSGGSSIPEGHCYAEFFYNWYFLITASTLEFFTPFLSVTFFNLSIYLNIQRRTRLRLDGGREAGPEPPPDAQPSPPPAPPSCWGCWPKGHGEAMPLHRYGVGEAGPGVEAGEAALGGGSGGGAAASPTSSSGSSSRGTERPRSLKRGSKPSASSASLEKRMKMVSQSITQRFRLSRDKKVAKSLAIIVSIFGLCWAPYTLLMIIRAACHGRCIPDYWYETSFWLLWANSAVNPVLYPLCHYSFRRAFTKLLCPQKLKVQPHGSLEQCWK
Chain of Histamine H3 receptor (Homo sapiens, UniProt Q9Y5N1) (Q9Y5N1 whole entry): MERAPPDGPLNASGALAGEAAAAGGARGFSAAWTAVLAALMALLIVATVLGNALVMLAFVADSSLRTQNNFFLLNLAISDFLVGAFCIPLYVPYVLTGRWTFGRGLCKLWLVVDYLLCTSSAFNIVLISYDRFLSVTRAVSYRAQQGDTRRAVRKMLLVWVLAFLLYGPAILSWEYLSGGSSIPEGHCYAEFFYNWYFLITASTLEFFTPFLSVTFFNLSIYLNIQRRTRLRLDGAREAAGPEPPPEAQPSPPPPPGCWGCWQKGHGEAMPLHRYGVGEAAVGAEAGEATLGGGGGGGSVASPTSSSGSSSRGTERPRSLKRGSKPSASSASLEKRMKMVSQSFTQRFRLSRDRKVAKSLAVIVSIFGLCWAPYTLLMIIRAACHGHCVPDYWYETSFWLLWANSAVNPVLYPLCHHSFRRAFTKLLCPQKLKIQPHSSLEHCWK
Chain of Histamine H4 receptor (Mus musculus, UniProt Q91ZY2) (Q91ZY2 whole entry): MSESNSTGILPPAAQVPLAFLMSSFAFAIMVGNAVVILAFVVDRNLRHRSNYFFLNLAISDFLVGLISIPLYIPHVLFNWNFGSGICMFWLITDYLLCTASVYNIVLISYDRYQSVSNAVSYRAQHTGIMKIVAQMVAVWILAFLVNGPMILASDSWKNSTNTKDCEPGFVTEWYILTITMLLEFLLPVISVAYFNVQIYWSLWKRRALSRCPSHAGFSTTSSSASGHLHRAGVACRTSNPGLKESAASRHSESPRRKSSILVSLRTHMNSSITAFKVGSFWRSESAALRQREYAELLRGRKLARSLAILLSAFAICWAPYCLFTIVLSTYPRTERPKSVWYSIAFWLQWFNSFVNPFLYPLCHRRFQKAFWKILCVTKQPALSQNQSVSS

Broadly, the pKb is −log10 of the Kb, conventionally taken in molar units. Turning to `N#Cc1ccc(-c2cc(N3CCN(CC4CC4)CC3)nc(N)n2)cc1`, the pKb in series [1] came to 4.54; in [2], 5.53.

Usually EC50 stands for the midpoint of the concentration-response curve. On to `CN1CCN(c2cc(-c3c[nH]cn3)nc(N)n2)CC1`, for which the EC50 in series [3] was 0.389 µM; in series [6], 0.0162 µM. In addition, the results for the Efficacy in series [4] and in series [5] were 77% and 41%, respectively.

Consider `CN1CCN(c2cc(-c3cccc(-c4ccccc4)c3)nc(N)n2)CC1`, for which the pKb turned out to be 6.38 in [1] and 6.85 in series [2].

Take `CN1CCN(c2cc(-c3ccccc3-c3ccccc3)nc(N)n2)CC1`: the results for the pKb in series [1] and in series [2] were 5.72 and 6.79, respectively.

Take `CN1CCN(c2cc(-c3ccc(-c4ccccc4)cc3)nc(N)n2)CC1`: the pKb is 6.03 in series [1] and 6.29 in [2].

As for `COc1ncccc1-c1cc(N2CCN(C)CC2)nc(N)n1`, the figures for the EC50 in series [3] and in series [6] were 0.0933 µM and 0.0269 µM, respectively. The results for the Efficacy in series [4] and in [5] were 72% and 32%, respectively.

Consider `CN1CCN(c2nc(N)nc(-c3ccc(C#N)cc3)c2-c2ccccc2)CC1`, for which the figures for the pKb in [1] and in series [2] were 5.29 and 5.69, respectively.

`CN1CCN(c2cc(C(C)(C)C)nc(N(C)C)n2)CC1`: the values for the half-maximal effective concentration (EC50) in [3] and in series [6] were 18.2 µM and 11.5 µM, respectively. Moreover, the figures for the Efficacy in series [4] and in series [5] were 88% and 100%, respectively.

As to `CN1CCN(c2cc(-n3cnc(-c4ccccc4)c3)nc(N)n2)CC1`, the pKb in series [1] is 5.74; in series [2] it was 5.68.

A word on the Ki: it is a measure of affinity in units of concentration, obtained from inhibition or displacement. Regarding `N#Cc1ccc(-c2cc(N3CCNCC3)nc(N)n2)cc1`, the Drug uptake in [7] was 610 ng/mL. Also, the EC50 was 0.245 µM in series [3] and 0.102 µM in [8]. The Efficacy in [4] stood at 67%. Also, the Ki was 0.0417 µM in [9], 0.339 µM in series [10], 0.933 µM in series [11] and 0.12 µM in series [12]. The same compound displayed a negative-log Kb (pKb) in [2] of 8.08.

With `CN1CCN(c2cc(-n3ccccc3=O)nc(N)n2)CC1`, the EC50 in series [3] was 14.1 µM; in series [6], 3.89 µM. In addition, the results for the Efficacy in series [4] and in series [5] were 33% and 27%, respectively.

With `CN1CCN(c2cc(-n3ccnc3)nc(N)n2)CC1`, the EC50 in series [3] is 7.94 µM; in series [6], 2.51 µM. Moreover, the results for the Efficacy in [4] and in [5] were 56% and 31%, respectively.

In the case of `CN1CCN(c2nc(N)ncc2N)CC1`, the EC50 in series [3] was 0.0427 µM; in series [6], 0.0339 µM. In addition, the Efficacy was found to be 88% in series [4] and 38% in series [5].

In the case of `CN1CCN(c2cc(C(C)(C)C)nc(Cl)n2)CC1`, the EC50 is 8.71 µM in series [3] and 4.9 µM in [6]. Moreover, the Efficacy in series [4] came to 75%; in series [5], 42%.

Consider `CN1CCN(c2cc(-c3cccc4ccccc34)nc(N)n2)CC1`, for which the pKb in series [1] was found to be 7.27; in series [2], 7.81.

As to `COc1nc(N2CCN(C)CC2)cc(C(C)(C)C)n1`, the EC50 was 4.68 µM in [3] and 1.2 µM in [6]. The Efficacy in [4] was found to be 90%; in series [5], 43%.

For the compound `CN1CCN(c2cc(N)cc(-c3ccc(C#N)cc3)n2)CC1`, the pKb stood at 5.14 in [1] and 5.05 in series [2].

`CN1CCN(c2cc(N(C)Cc3ccccc3)nc(N)n2)CC1`: the values for the pKb in [1] and in series [2] were 6.47 and 6.77, respectively.

`CN1CCN(c2ccnc(N)n2)CC1`: the EC50 is 0.115 µM in series [3] and 0.0437 µM in series [6]. Also, the results for the Efficacy in [4] and in series [5] were 87% and 42%, respectively.

Regarding `CN1CCN(c2cc(N(C)c3ccccc3)nc(N)n2)CC1`, the results for the pKb in series [1] and in [2] were 6.1 and 6.96, respectively.

On to `CN1CCN(c2cc(-n3cnc4ccccc43)nc(N)n2)CC1`, for which the Efficacy in series [5] was 82%. For the same compound, the EC50 in [6] was 0.178 µM. Further, the pKb in series [1] came to 6.46.

With `CN1CCN(c2cc(-c3ccc(C#N)cc3)cc(N)n2)CC1`, the pKb in series [13] is 5.39. Further, the Efficacy in [5] was 56%. For the same compound, the 50% effective concentration (EC50) in series [6] was 2.34 µM.

Consider `CN1CCN(c2cc(NCc3ccccc3)nc(N)n2)CC1`, for which the EC50 was 0.49 µM in series [3] and 0.0646 µM in [6]. The Efficacy in [5] amounted to 56%.

Consider `CN1CCN(c2cc(-c3cccc(C#N)c3)nc(N)n2)CC1`, for which, in series [3], the EC50 was 0.234 µM. In addition, the Efficacy in series [4] is 48%. Further, in [2], the pKb was 8.06.

As for `CN1CCN(c2cc(-c3cn(C)cn3)nc(N)n2)CC1`, the EC50 in series [3] is 0.102 µM. For the same compound, in [4], the Efficacy was determined as 91%. This compound also showed a pKb in [2] of 8.05.

Consider `CN1CCN(c2cc(-c3ccc(I)cc3)nc(N)n2)CC1`, for which the EC50 in series [3] was 0.275 µM. Moreover, the Efficacy in series [4] stood at 58%. In addition, the negative logarithm of the Kb (pKb) in series [2] came out at 7.83.
